Several values for one entry are separate records, joined by “and”; a condition that tells them apart may be missing. Identical values can stand only once.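 Growth conditions: 96-well plates. Treatment: test compound, 48 hours, 5 concentrations. Analysis: linear interpolation between bracketing concentrations; unreached endpoints set to highest concentration. Here, GI50 denotes the concentration required for 50% inhibition of growth.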 Activity calls are given as the source filed them. Rule as the data show it: active = GI50 up to about 1.1 µM and inactive = higher.
Experiments:
Assay in all cases: NCI tumour cell line growth inhibition, 48 h
SNB-19 = test system: SNB-19
SW-620 = test system: SW-620
RPMI-8226 = test system: RPMI-8226
K562 = test system: K562
NCI-H460 = test system: NCI-H460
IGROV-1 = test system: IGROV-1
M14 = test system: M14
SNB-75 = test system: SNB-75
CCRF-CEM = test system: CCRF-CEM
A549 = test system: A549
A498 = test system: A498
EKVX = test system: EKVX
HOP-92 = test system: HOP-92
UACC-257 = test system: UACC-257
ACHN = test system: ACHN
NCI-H23 = test system: NCI-H23
OVCAR-3 = test system: OVCAR-3
UACC-62 = test system: UACC-62
U-251 = test system: U-251

Measured: GI50

CCOC(=O)/C(C#N)=N\Nc1ccc(-n2c(C)nc3ccccc3c2=O)cc1
inactive: SNB-19 > 100 µM | SW-620 75.9 µM | RPMI-8226 30.9 µM | K562 49.1 µM | NCI-H460 67.5 µM | IGROV-1 51.2 µM | M14 69.8 µM | SNB-75 63.5 µM | CCRF-CEM > 100 µM | A549 73.6 µM | A498 > 100 µM | EKVX 53.2 µM | HOP-92 > 100 µM | UACC-257 61.4 µM | ACHN > 100 µM | NCI-H23 > 100 µM | OVCAR-3 32.7 µM | UACC-62 70.3 µM | U-251 > 100 µM

CSC1=N/C(=C\c2cccs2)C(=O)N1CN1CCCCC1
inactive: SW-620 36.9 µM | RPMI-8226 22.1 µM | K562 27.1 µM | IGROV-1 33.5 µM | M14 > 100 µM | SNB-75 31.9 µM | CCRF-CEM 18.7 µM | A549 > 100 µM | A498 > 100 µM | EKVX 24 µM | HOP-92 28.2 µM | ACHN 28 µM | NCI-H23 > 100 µM | OVCAR-3 > 100 µM | UACC-62 93.3 µM | U-251 79.6 µM

C=C1CC[C@@H](C)[C@](C)(CCc2ccoc2)C/C=C\C=C/1C(=O)O
inactive: SNB-19 > 100 µM | SW-620 32.8 µM | K562 32.3 µM | NCI-H460 30.2 µM | IGROV-1 51.4 µM | M14 32.4 µM | SNB-75 80 µM | CCRF-CEM 28.4 µM | A549 36.2 µM | A498 58.6 µM | EKVX 64.6 µM | HOP-92 62.2 µM | UACC-257 53 µM | ACHN 53.2 µM | NCI-H23 50.4 µM | OVCAR-3 19.3 µM | UACC-62 31.2 µM | U-251 34.3 µM

N#CC1Cc2cc3c(cc21)OCO3 (stereo unspecified)
inactive: SNB-19 > 100 µM | SW-620 > 100 µM | K562 > 100 µM | NCI-H460 > 100 µM | IGROV-1 > 100 µM | M14 > 100 µM | SNB-75 > 100 µM | CCRF-CEM > 100 µM | A549 > 100 µM | A498 > 100 µM | EKVX > 100 µM | HOP-92 > 100 µM | UACC-257 > 100 µM | ACHN > 100 µM | NCI-H23 > 100 µM | OVCAR-3 > 100 µM | UACC-62 > 100 µM | U-251 > 100 µM

NC1=NC(=O)C2(NN1)c1ccccc1-c1ccccc12
inactive: SNB-19 > 10 µM | SW-620 > 10 µM | RPMI-8226 > 10 µM | K562 9.82 µM | NCI-H460 > 10 µM | IGROV-1 > 10 µM | M14 > 10 µM | SNB-75 > 10 µM | CCRF-CEM > 10 µM | A549 > 10 µM | A498 3.94 µM | HOP-92 > 10 µM | ACHN 6.17 µM | NCI-H23 > 10 µM | OVCAR-3 > 10 µM | U-251 7.62 µM

Cc1ccc(C)c(N2C(=O)C(=O)C(c3nc4ccccc4o3)C(=O)C2=O)c1
inactive: SNB-19 > 100 µM | SW-620 46.3 µM | NCI-H460 > 100 µM | IGROV-1 35.9 µM | M14 36.1 µM | SNB-75 95.1 µM | CCRF-CEM 17 µM | A549 > 100 µM | A498 > 100 µM | EKVX > 100 µM | HOP-92 92 µM | UACC-257 32 µM | ACHN > 100 µM | NCI-H23 43.6 µM | OVCAR-3 39.4 µM | UACC-62 43.9 µM | U-251 96.6 µM

N#C/C(C(=O)CCl)=C1\Nc2ccccc2O1
inactive: SNB-19 7.98 µM | SW-620 4.33 µM | RPMI-8226 2.92 µM | K562 3.24 µM | NCI-H460 3.19 µM | IGROV-1 1.83 µM | M14 3.9 µM | SNB-75 5.48 µM | CCRF-CEM 3.29 µM | A549 6.1 µM | A498 1.95 µM | HOP-92 3.88 µM | UACC-257 3.07 µM | NCI-H23 3.75 µM | OVCAR-3 3.77 µM | UACC-62 2.35 µM | U-251 5.36 µM

COc1ccc(/C=C2\CCS(=O)(=O)c3ccccc3C2=O)cc1OC
inactive: SNB-19 42.8 µM | SW-620 38 µM | RPMI-8226 35.2 µM | K562 > 100 µM | NCI-H460 18.3 µM | IGROV-1 7.91 µM | M14 38.9 µM | SNB-75 24.9 µM | CCRF-CEM 28.9 µM | A549 > 100 µM | A498 33.4 µM | EKVX 38.2 µM | HOP-92 19.6 µM | UACC-257 35.5 µM | ACHN 27.5 µM | NCI-H23 28.8 µM | OVCAR-3 22.7 µM | UACC-62 16.7 µM | U-251 31.9 µM

CC1=COC(C)(C=C(C#N)C#N)CC1 (stereo unspecified)
inactive: SNB-19 > 100 µM | SW-620 50.7 µM | RPMI-8226 38.5 µM | K562 30.5 µM | NCI-H460 > 100 µM | IGROV-1 88.3 µM | M14 78.5 µM | SNB-75 65.8 µM | CCRF-CEM 35.3 µM | A549 > 100 µM | A498 27 µM | EKVX > 100 µM | HOP-92 > 10 µM | UACC-257 57.3 µM | ACHN > 100 µM | NCI-H23 61 µM | UACC-62 57.7 µM | U-251 > 100 µM

COc1ccc(OCc2nc3cc(C(F)(F)F)ccc3nc2-c2ccccc2)cc1
inactive: SNB-19 > 100 µM | SW-620 > 100 µM | RPMI-8226 > 100 µM | K562 > 100 µM | NCI-H460 > 100 µM | M14 > 100 µM | SNB-75 > 100 µM | CCRF-CEM > 100 µM | A549 > 100 µM | A498 94.8 µM | EKVX > 100 µM | HOP-92 > 100 µM | UACC-257 > 100 µM | ACHN > 100 µM | NCI-H23 > 100 µM | OVCAR-3 > 100 µM | UACC-62 > 100 µM | U-251 > 100 µM

CCOP(=O)(OCC)C(C)(CC)NC(=O)C(C(F)(F)F)C(F)(F)F (stereo unspecified)
inactive: SNB-19 > 100 µM | SW-620 > 100 µM and 92 µM | RPMI-8226 33.3 µM and 21.9 µM | NCI-H460 > 100 µM | IGROV-1 > 100 µM | M14 > 100 µM | CCRF-CEM 22 µM and 21.9 µM | A549 > 100 µM | A498 > 100 µM | EKVX > 100 µM | HOP-92 > 57 µM | UACC-257 > 100 µM | ACHN > 100 µM | NCI-H23 > 100 µM | OVCAR-3 > 100 µM | U-251 > 100 µM

Cc1ccc(S(=O)(=O)n2ccn3c(=O)cc(C)nc23)cc1
inactive: SNB-19 > 10 µM | SW-620 > 10 µM | RPMI-8226 > 10 µM | K562 > 10 µM | NCI-H460 > 10 µM | IGROV-1 > 10 µM | M14 > 10 µM | SNB-75 > 10 µM | CCRF-CEM > 10 µM | A549 > 10 µM | A498 > 10 µM | EKVX > 10 µM | HOP-92 > 10 µM | UACC-257 > 10 µM | ACHN > 10 µM | NCI-H23 > 10 µM | OVCAR-3 > 10 µM | UACC-62 > 10 µM | U-251 > 10 µM

— ChEMBL document CHEMBL1201862, “PubChem BioAssay data set” (2004)
